In paper PMC10176470, “Engaging a Non-catalytic Cysteine Residue Drives Potent and Selective Inhibition of Caspase-6” (Journal of the American Chemical Society, 2023) one finds enrich.exp.med, enrich.exp.med.lin and enrich.exp.med.log2 data, which are given here for one compound.

Molecules are shown by their SMILES.

Holding throughout (assay): SILAC proteomics / in-gel fluorescence, competition of probe 13-t labeling by 3a
The target of test [1] is proteins of HEK293T cells transiently overexpressing caspase-6 (Homo sapiens, UniProt Q9Y2X3). Particulars: Comp; protein NOP58 Q9Y2X3.
The target in test [2] is proteins of HEK293T cells transiently overexpressing caspase-6 (Homo sapiens, UniProt P54886). Particulars: Comp; protein ALDH18A1 P54886.
For test [3], the target named is proteins of HEK293T cells transiently overexpressing caspase-6 (Homo sapiens, UniProt P05388). Particulars: Comp; protein RPLP0 P05388.
The target of test [4] is proteins of HEK293T cells transiently overexpressing caspase-6 (Homo sapiens, UniProt Q86VP6). Particulars: Comp; protein CAND1 Q86VP6.
For test [5], the target named is T1, proteins of HEK293T cells transiently overexpressing caspase-6 (Homo sapiens, UniProt P22234).
T1 sequence (P22234 1-425): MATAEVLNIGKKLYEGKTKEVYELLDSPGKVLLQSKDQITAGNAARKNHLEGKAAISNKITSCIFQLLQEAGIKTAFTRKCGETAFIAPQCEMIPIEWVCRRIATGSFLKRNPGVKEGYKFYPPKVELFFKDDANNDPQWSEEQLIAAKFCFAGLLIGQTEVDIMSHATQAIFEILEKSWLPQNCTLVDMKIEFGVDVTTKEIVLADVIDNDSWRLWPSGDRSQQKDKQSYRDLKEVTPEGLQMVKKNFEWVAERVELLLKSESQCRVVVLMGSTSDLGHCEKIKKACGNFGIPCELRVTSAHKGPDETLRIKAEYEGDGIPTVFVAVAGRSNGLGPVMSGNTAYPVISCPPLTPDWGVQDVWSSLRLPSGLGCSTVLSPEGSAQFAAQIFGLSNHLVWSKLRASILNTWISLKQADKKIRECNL
Particulars: Comp; protein PAICS P22234.

Test [6] deals with T2, proteins of HEK293T cells transiently overexpressing caspase-6 (Homo sapiens, UniProt O00567).
T2 sequence (O00567 1-594): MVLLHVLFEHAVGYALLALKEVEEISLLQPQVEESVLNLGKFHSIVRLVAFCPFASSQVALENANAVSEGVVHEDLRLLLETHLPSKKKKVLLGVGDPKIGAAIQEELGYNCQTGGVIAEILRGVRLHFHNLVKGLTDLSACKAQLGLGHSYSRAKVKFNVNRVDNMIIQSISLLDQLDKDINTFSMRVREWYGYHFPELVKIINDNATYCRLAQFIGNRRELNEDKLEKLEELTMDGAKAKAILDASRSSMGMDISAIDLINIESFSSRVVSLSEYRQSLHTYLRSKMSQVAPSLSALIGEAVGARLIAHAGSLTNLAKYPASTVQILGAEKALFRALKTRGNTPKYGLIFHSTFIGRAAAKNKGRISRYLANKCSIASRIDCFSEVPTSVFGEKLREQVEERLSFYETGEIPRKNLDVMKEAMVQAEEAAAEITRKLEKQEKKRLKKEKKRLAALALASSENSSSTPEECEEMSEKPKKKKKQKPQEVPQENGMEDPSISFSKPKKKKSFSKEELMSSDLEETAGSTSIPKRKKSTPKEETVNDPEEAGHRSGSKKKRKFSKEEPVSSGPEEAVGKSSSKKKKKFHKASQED

For test [7], the target named is proteins of HEK293T cells transiently overexpressing caspase-6 (Homo sapiens, UniProt Q00839). Particulars: Comp; protein HNRNPU Q00839.
For test [8], the target named is proteins of HEK293T cells transiently overexpressing caspase-6 (Homo sapiens, UniProt P35606). Particulars: Comp; protein COPB2 P35606.
The target of test [9] is proteins of HEK293T cells transiently overexpressing caspase-6 (Homo sapiens, UniProt Q9P258). Particulars: Comp; protein RCC2 Q9P258.
Test [10] addresses proteins of HEK293T cells transiently overexpressing caspase-6 (Homo sapiens, UniProt Q14204).
In test [11] the target is proteins of HEK293T cells transiently overexpressing caspase-6 (Homo sapiens, UniProt P31943). Particulars: Comp; protein HNRNPH1 P31943.
Test [12] deals with proteins of HEK293T cells transiently overexpressing caspase-6 (Homo sapiens, UniProt P07814). Particulars: Comp; protein EPRS P07814.
Test [13] has as its target proteins of HEK293T cells transiently overexpressing caspase-6 (Homo sapiens, UniProt P05141). Particulars: Comp; protein SLC25A5 P05141.
Test [14] concerns the target proteins of HEK293T cells transiently overexpressing caspase-6 (Homo sapiens, UniProt O14980). Particulars: Comp; protein XPO1 O14980.
Where [15] appears, read: protein NOP56 (O00567), Exp Comp, analysis C6, p 0.1250, 4 peptides.
[16] abbreviates: protein DYNC1H1 (Q14204), Exp Comp, analysis C6, p 0.1250, 4 peptides.

Sequence of proteins of HEK293T cells transiently overexpressing caspase-6 (Homo sapiens, UniProt Q14204) (Q14204 whole entry): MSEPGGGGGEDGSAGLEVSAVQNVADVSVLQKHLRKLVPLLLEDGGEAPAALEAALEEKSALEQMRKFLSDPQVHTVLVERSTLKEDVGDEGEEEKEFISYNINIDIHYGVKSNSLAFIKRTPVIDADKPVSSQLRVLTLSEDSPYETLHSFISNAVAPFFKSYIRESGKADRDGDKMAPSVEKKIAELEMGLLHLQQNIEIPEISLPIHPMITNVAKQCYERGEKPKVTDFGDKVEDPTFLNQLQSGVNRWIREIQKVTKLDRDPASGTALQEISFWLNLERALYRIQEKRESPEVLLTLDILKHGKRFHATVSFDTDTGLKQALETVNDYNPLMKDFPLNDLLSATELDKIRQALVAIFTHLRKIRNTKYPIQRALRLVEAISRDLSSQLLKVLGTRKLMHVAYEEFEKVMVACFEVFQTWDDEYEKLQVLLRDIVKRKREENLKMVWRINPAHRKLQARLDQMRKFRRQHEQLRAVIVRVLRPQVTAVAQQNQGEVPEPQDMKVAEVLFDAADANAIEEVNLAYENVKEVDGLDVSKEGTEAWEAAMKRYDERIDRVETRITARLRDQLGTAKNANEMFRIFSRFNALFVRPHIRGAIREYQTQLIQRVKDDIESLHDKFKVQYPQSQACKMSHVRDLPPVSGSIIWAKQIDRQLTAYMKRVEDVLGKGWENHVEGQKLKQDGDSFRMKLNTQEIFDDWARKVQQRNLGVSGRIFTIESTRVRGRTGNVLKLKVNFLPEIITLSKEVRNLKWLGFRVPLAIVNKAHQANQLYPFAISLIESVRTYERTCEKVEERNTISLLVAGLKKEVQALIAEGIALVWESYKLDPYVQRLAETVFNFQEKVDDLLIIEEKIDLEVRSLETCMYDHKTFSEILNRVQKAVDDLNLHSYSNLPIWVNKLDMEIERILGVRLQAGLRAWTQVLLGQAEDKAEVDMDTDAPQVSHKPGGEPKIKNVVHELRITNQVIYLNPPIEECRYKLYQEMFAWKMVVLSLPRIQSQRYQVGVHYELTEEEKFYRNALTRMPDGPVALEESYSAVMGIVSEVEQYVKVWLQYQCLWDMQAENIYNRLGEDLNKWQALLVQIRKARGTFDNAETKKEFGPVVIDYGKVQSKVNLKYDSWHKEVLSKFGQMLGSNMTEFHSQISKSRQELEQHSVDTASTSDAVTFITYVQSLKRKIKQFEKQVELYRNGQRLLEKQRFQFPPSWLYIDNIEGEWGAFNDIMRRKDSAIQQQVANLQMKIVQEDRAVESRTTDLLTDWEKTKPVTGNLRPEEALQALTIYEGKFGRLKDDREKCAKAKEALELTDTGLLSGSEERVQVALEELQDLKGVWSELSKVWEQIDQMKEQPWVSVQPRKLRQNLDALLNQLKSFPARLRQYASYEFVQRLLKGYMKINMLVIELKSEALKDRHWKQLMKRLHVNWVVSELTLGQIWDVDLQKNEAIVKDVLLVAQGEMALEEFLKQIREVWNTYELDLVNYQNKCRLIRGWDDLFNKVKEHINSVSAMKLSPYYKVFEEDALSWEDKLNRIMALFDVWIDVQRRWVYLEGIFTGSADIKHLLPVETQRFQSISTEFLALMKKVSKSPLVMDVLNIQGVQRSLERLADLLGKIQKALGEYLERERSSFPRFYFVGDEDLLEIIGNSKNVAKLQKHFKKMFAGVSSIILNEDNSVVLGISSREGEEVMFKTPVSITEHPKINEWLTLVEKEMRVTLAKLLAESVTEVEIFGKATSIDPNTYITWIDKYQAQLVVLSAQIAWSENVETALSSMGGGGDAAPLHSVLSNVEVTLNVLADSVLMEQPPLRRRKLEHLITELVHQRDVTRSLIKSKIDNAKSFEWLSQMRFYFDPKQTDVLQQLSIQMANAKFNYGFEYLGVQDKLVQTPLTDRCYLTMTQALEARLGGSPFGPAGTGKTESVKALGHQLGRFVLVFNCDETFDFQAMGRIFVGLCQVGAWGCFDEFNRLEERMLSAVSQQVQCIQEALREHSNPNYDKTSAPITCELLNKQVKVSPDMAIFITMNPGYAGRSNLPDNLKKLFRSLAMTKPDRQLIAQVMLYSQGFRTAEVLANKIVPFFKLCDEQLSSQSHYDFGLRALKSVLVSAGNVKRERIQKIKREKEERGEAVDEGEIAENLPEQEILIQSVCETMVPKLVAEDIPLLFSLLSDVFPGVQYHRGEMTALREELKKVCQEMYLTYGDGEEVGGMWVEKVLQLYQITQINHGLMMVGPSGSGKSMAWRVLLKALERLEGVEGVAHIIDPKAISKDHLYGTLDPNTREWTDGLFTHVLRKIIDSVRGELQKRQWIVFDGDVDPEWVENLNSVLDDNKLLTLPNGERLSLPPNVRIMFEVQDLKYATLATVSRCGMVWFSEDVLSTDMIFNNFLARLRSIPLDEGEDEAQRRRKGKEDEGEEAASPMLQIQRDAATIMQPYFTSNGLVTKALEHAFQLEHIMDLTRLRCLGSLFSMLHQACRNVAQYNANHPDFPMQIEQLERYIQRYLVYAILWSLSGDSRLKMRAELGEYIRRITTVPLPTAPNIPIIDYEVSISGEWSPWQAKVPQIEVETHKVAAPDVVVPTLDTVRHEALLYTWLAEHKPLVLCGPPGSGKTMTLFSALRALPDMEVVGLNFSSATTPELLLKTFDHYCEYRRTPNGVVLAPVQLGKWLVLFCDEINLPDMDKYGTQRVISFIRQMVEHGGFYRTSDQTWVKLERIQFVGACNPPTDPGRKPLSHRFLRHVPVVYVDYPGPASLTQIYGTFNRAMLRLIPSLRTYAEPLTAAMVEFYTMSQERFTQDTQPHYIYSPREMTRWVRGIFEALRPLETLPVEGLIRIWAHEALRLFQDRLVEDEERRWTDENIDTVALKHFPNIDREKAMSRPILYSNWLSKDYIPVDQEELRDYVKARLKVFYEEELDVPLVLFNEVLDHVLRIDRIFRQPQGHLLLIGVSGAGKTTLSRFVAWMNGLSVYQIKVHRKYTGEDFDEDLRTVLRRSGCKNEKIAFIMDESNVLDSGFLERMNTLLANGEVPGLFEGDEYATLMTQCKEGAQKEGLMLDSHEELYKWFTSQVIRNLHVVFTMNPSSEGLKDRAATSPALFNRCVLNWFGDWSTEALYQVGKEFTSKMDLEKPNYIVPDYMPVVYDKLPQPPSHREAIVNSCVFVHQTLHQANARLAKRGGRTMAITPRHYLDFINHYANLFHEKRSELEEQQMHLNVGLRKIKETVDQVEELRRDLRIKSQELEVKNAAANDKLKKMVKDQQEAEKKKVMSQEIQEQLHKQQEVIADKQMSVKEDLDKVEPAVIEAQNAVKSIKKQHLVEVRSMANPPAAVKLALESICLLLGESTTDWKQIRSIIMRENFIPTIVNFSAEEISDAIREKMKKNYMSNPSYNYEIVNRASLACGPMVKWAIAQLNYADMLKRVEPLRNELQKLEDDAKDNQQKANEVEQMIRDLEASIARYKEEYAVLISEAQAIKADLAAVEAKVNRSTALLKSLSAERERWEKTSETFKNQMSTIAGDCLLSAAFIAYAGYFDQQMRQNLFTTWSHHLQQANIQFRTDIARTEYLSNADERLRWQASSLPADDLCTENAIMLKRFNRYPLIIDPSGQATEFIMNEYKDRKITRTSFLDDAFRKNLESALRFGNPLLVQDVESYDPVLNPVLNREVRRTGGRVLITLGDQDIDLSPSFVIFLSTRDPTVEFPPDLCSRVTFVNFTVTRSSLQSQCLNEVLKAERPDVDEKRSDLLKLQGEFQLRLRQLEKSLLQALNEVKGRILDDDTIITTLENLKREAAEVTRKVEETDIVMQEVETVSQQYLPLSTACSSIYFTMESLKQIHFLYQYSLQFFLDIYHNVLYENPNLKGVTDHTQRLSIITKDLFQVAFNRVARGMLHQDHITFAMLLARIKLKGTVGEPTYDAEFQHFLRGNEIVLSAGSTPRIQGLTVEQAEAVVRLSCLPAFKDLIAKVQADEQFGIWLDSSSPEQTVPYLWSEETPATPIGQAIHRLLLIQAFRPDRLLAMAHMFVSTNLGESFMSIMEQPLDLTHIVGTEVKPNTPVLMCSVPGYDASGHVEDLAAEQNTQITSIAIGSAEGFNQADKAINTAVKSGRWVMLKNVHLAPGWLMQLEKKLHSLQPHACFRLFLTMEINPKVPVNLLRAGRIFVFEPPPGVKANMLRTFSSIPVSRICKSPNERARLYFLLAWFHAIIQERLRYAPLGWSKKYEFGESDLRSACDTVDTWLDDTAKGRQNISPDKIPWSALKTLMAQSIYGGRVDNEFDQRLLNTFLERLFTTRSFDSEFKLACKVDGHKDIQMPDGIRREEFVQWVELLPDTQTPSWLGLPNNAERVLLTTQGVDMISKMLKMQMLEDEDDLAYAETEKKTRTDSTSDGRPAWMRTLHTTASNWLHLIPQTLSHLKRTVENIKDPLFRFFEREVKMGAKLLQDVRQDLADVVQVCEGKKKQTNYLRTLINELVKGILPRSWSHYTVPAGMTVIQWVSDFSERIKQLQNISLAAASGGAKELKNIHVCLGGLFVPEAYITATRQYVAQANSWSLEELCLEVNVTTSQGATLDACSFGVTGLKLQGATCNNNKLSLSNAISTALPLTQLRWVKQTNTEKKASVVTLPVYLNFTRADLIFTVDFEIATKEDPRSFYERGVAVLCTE
Sequence of proteins of HEK293T cells transiently overexpressing caspase-6 (Homo sapiens, UniProt P05141) (P05141 whole entry): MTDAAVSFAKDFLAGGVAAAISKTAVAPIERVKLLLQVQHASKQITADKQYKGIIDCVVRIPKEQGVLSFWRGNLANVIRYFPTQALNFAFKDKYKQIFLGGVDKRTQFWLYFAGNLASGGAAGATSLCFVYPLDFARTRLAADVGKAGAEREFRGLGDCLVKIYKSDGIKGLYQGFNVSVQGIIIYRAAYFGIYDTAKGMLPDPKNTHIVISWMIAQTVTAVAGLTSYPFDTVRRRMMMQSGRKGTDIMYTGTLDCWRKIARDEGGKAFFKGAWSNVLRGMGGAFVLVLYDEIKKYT

As to `C=CS(=O)(=O)N1C[C@H](C(=O)Nc2ccc(OC(F)(F)F)cc2)C[C@@H](c2ccccc2)C1` [3a], the enrich.exp.med in test [1] is 0.7213; in test [2] it was 0.7021; in test [3], 0.8946; in test [4], 0.6553; in test [5] it was 0.7148; in test [6] (Comp, protein NOP56 O00567), 1.117. Further, the enrich.exp.med amounted to 0.6324 in test [7]; 0.6156 in test [8]; 0.5769 in [9]; 1.335 in test [10] (Comp, protein DYNC1H1 Q14204); 0.7263 in test [11]; 0.7098 in test [12]. In addition, the results for the enrich.exp.med in test [13] and in test [14] were 0.6101 and 0.6797, respectively. The enrich.exp.med.lin in test [6] (setting [15]) is reported as 2.169; in test [10] (setting [16]), 2.5227. The enrich.exp.med.log2 worked out at 1.117 in [6] (setting [15]) and 1.335 in test [10] (setting [16]).
